The values that follow come from the OligoGym collection.

This data set addresses SNHG14. The conditions noted are these: ASO.
[1] abbreviates: Mouse Primary Neuronal Cell, 0.005 µM.

After the bases stand the sugars from the 5' end (letter, count) and the backbone: PS all phosphorothioate, else s phosphorothioate and o phosphodiester by linkage. Methylation of C is not given here. l = locked nucleic acid (LNA); d = 2'-deoxy (DNA)

As for “ATATTGATTCAATTCCC (sugars l2 d2 l1 d9 l3, PS)”, the target mRNA inhibition (Human Neuronal Cell, 7.5 µM) was 75%.
Consider “ATATTGATTCAATTCCC (sugars ldddlddddddllddll, PS)”, for which, for the setting “Human Neuronal Cell, 7.5 µM”, the target mRNA inhibition came to 62%.
As for “ATATTGATTCAATTCCC (sugars lddllddddddlddlll, PS)”, the target mRNA inhibition (Human Neuronal Cell, 7.5 µM) is 62%.
The same measure, in the same setting: the value for “ATATTGATTCAATTCCC (sugars lldddddddddldldll, PS)” was 60%.
Regarding ATATTTGTCACCTAAC (sugars l4 d10 l2, PS), the target mRNA inhibition amounted to 33% (Human Neuronal Cell, 0.2 µM) and 32% (Human Neuronal Cell, 1 µM).
“ATCATTCTCAACAATTA (sugars l1 d1 l3 d6 l6, PS)”: the target mRNA inhibition (Human Neuronal Cell, 7.5 µM) is -24%.
Same read-out and setting: the result for ATCATTCTCAACAATTA (sugars l4 d7 l6, PS) reads 17%; that for “ATCATTCTCAACAATTA (sugars l5 d6 l2 d2 l2, PS)”, 31%.
For “ATCATTCTCAACAATTA (sugars l5 d7 l1 d1 l3, PS)”, under “Human Neuronal Cell, 7.5 µM”, the target mRNA inhibition stood at 54%.
Same read-out and setting: the result for “ATCATTCTCAACAATTAA (sugars l5 d8 l5, PS)” reads 48%.
Consider ATCCCTTTGTAATCAT (sugars l4 d10 l2, PS), for which the target mRNA inhibition by setting is: (Human Neuronal Cell, 0.2 µM) 33%; (Human Neuronal Cell, 1 µM) 28%.
As for “ATCTCATGACCACCTAA (sugars ldldddddddddlldll, PS)”, where the note is “Human Neuronal Cell, 7.5 µM”, the target mRNA inhibition was 51%.
Take ATCTGCTACATATTCT (sugars l4 d10 l2, PS): the target mRNA inhibition by setting is: (Human Neuronal Cell, 0.2 µM) 41%; (Human Neuronal Cell, 1 µM) 61%.
As to “ATCTGCTACATATTCTT (sugars l4 d11 l2, PS)”, the target mRNA inhibition by setting is: (Human Neuronal Cell, 0.2 µM) 50%; (Human Neuronal Cell, 1 µM) 59%.
Consider “ATCTTTCCATTTATTTCCAT (sugars ldddddlddddddlddddll, PS)”, for which the target mRNA inhibition (Human Neuronal Cell, 7.5 µM) was 41%.
In the case of “ATCTTTCCATTTATTTCCAT (sugars ldddldldddddddldddll, PS)”, the target mRNA inhibition (Human Neuronal Cell, 7.5 µM) came to 30%.
Turning to ATTCTTACCGTCTTTA (sugars l4 d10 l2, PS), the target mRNA inhibition is 49% (Human Neuronal Cell, 0.2 µM) and 60% (Human Neuronal Cell, 1 µM).
For “ATTGATTCAATTCCCTT (sugars l3 d8 l3 d1 l2, PS)”, the target mRNA inhibition (Human Neuronal Cell, 7.5 µM) is 51%.
In the case of “ATTGATTCAATTCCCTT (sugars lddlddddddddldlll, PS)”, under “Human Neuronal Cell, 7.5 µM”, the target mRNA inhibition is 67%.
Take “ATTGATTCAATTCCCTT (sugars lddlddddddddlldll, PS)”: the target mRNA inhibition (Human Neuronal Cell, 7.5 µM) was 61%.
Turning to “ATTGATTCAATTCCCTT (sugars ldldddddddddldlll, PS)”, where the note is “Human Neuronal Cell, 7.5 µM”, the target mRNA inhibition was 54%.
Turning to “ATTTACACTTAATTATACTT (sugars lllldllddddddlldddll, PS)”, the target mRNA inhibition (Human Neuronal Cell, 7.5 µM) came to 38%.
In the case of “ATTTCATATTACTAACTA (sugars l2 d12 l4, PS)”, the target mRNA inhibition is, setting by setting: (Human Neuronal Cell, 0.2 µM) 3%; (Human Neuronal Cell, 1 µM) 20%.
For “ATTTTTTTCTTACTATCTTC (sugars ldddllddddddddlddlll, PS)”, the target mRNA inhibition (Human Neuronal Cell, 7.5 µM) came to 58%.
“ATTTTTTTCTTACTATCTTC (sugars ldlldlldddddddddddll, PS)”: under “Human Neuronal Cell, 7.5 µM”, the target mRNA inhibition stood at 69%.
Take “ATTTTTTTCTTACTATCTTC (sugars lldlddddddddddddldll, PS)”: the target mRNA inhibition (Human Neuronal Cell, 7.5 µM) came out at 50%.
In the case of CAAACCTACGTCTCTC (sugars l2 d10 l4, PS), the target mRNA inhibition reads like this: (Human Neuronal Cell, 0.2 µM) 31%; (Human Neuronal Cell, 1 µM) 26%.
In the case of “CAAAGATCATTCTCAAC (sugars l1 d2 l2 d6 l6, PS)”, the target mRNA inhibition (Human Neuronal Cell, 7.5 µM) is 34%.
For “CAACATTATTAACCACCTT (sugars l1 d14 l4, PS)”, the target mRNA inhibition (Human Neuronal Cell, 7.5 µM) was 47%.
Same read-out and setting: the value for “CAACATTATTAACCACCTTA (sugars l1 d13 l3 d1 l2, PS)” was 47%; that for “CAACATTATTAACCACCTTA (sugars ldldldddddddddddldll, PS)” was 51%.
As to “CAACATTATTAACCACCTTA (sugars ldlldddddddddddlddll, PS)”, the target mRNA inhibition (Human Neuronal Cell, 7.5 µM) came out at 57%.
As for CAACTATTATCTTCTT (sugars l2 d10 l4, PS), the target mRNA inhibition came to 42% (Human Neuronal Cell, 0.2 µM) and 61% (Human Neuronal Cell, 1 µM).
For the sequence CAACTCTATGACTACC (sugars l2 d10 l4, PS), the target mRNA inhibition is, setting by setting: (Human Neuronal Cell, 0.2 µM) 46%; (Human Neuronal Cell, 1 µM) 36%.
As to “CAAGTTTCCTATATTCT (sugars l4 d11 l2, PS)”, the target mRNA inhibition stood at 66% (Human Neuronal Cell, 0.2 µM) and 70% (Human Neuronal Cell, 1 µM).
As for CACCTTAAGTAACATT (sugars l4 d10 l2, PS), the target mRNA inhibition is 19% (Human Neuronal Cell, 0.2 µM) and 21% (Human Neuronal Cell, 1 µM).
“CACTAATAATTCACTTT (sugars l4 d11 l2, PS)”: the target mRNA inhibition (Human Neuronal Cell, 0.2 µM) is 31% and the target mRNA inhibition (Human Neuronal Cell, 1 µM) was 49%.
In the case of “CAGCTTTTAACCAGAGT (sugars l2 d12 l3, PS)”, the target mRNA inhibition (Human Neuronal Cell, 7.5 µM) came to 79%.
With CAGTTTAAATTCACAC (sugars l3 d10 l3, PS), the target mRNA inhibition turned out to be 34% (Human Neuronal Cell, 0.2 µM) and 46% (Human Neuronal Cell, 1 µM).
Turning to “CATTATTATTTAACCTT (sugars l2 d11 l4, PS)”, the target mRNA inhibition (Human Neuronal Cell, 0.2 µM) was -2% and the target mRNA inhibition (Human Neuronal Cell, 1 µM) was determined as 14%.
For CATTTACAAGCACATA (sugars l2 d10 l4, PS), in that order: 43% and 37%.
Regarding CCAAATAAGCAAACTC (sugars l3 d10 l3, PS), the target mRNA inhibition came to 60% (Human Neuronal Cell, 0.2 µM) and 39% (Human Neuronal Cell, 1 µM).
For CCACCTAAGACCTCAA (sugars l2 d10 l4, PS), in that order: 53% and 60%.
For “CCACTGATTTCCTTAAA (sugars l4 d11 l2, PS)”, in that order: 40% and 57%.
Take CCATACAGTATATACA (sugars l4 d10 l2, PS): the target mRNA inhibition by setting is: (Human Neuronal Cell, 0.2 µM) 31%; (Human Neuronal Cell, 1 µM) 56%.
For “CCATTTATTTCCATTTAT (sugars l3 d12 l3, PS)”, in that order: 38% and 59%.
In the case of “CCATTTATTTCCATTTATT (sugars lddldddddddddlldlll, PS)”, the target mRNA inhibition (Human Neuronal Cell, 7.5 µM) is 59%.
Same read-out and setting: the result for “CCATTTATTTCCATTTATTT (sugars ldldddddddddddllddll, PS)” reads 52%.
In the case of CCCAAATAAGCAAACT (sugars l4 d10 l2, PS), the target mRNA inhibition by setting is: (Human Neuronal Cell, 0.2 µM) 35%; (Human Neuronal Cell, 1 µM) 43%.
As for “CCCATTTCTAACATTTAC (sugars l3 d12 l3, PS)”, the target mRNA inhibition turned out to be 50% (Human Neuronal Cell, 0.2 µM) and 64% (Human Neuronal Cell, 1 µM).
On to CCCTTATAGTTATTAA (sugars l3 d10 l3, PS), for which the target mRNA inhibition came out at 26% (Human Neuronal Cell, 0.2 µM) and 13% (Human Neuronal Cell, 1 µM).
Turning to “CCTAAGCTCCATATTTA (sugars l3 d11 l3, PS)”, the target mRNA inhibition came out at 30% (Human Neuronal Cell, 0.2 µM) and 47% (Human Neuronal Cell, 1 µM).
In the case of “CCTACATCTCATACTTG (sugars l3 d12 l2, PS)”, under setting [1], the target mRNA inhibition was 96.1%.
Consider “CCTACATCTCATACTTG (sugars l4 d11 l2, PS)”, for which the target mRNA inhibition was -13% (Human Neuronal Cell, 0.2 µM); 17% (Human Neuronal Cell, 1 µM); 12% (Human Neuronal Cell, 5 µM); 94.2% under setting [1].
On to CCTATGTTAATACTTT (sugars l4 d10 l2, PS), for which the target mRNA inhibition stood at 25% (Human Neuronal Cell, 0.2 µM) and 29% (Human Neuronal Cell, 1 µM).
